In ChEMBL document CHEMBL4680293, “Tubulin inhibitory activity of a novel colchicine-binding compounds based on a dinaphthospiropyranran scaffold” (Bioorg Med Chem, 2021):
pIC50: −log10 of the molar value.

Key:
[1] = system: U-251; experiment: Anti-cancer activity against human U251 cells assessed as cell growth inhibition measured after 48 hrs by SRB method; format: functional, cell-based
[2] = system: UACC-257; experiment: Anti-cancer activity against human UACC-257 cells assessed as cell growth inhibition measured after 48 hrs by SRB method; format: functional, cell-based
[3] = Anti-cancer activity against human breast cancer cells assessed as cell growth inhibition measured after 48 hrs by SRB method; format: functional; details: Breast cancer cell line
[4] = system: SNB-75; experiment: Anti-cancer activity against human SNB-75 cells assessed as cell growth inhibition measured after 48 hrs by SRB method; format: functional, cell-based
[5] = system: 786-0; experiment: Anti-cancer activity against human 786-0 cells assessed as cell growth inhibition measured after 48 hrs by SRB method; format: functional, cell-based
[6] = Anti-cancer activity against human renal cancer cells assessed as cell growth inhibition measured after 48 hrs by SRB method; format: functional; details: Renal cancer cell line
[7] = system: NCI-H226; experiment: Anti-cancer activity against human NCI-H226 cells assessed as cell growth inhibition measured after 48 hrs by SRB method; format: functional, cell-based
[8] = system: HCT-116; experiment: Anti-cancer activity against human HCT-116 cells assessed as cell growth inhibition measured after 48 hrs by SRB method; format: functional, cell-based
[9] = system: SF-268; experiment: Anti-cancer activity against human SF-268 cells assessed as cell growth inhibition measured after 48 hrs by SRB method; format: functional, cell-based
[10] = system: HOP-92; experiment: Anti-cancer activity against human HOP-92 cells assessed as cell growth inhibition measured after 48 hrs by SRB method; format: functional, cell-based
[11] = system: SF-295; experiment: Anti-cancer activity against human SF-295 cells assessed as cell growth inhibition measured after 48 hrs by SRB method; format: functional, cell-based
[12] = system: BT-549; experiment: Anti-cancer activity against human BT-549 cells assessed as cell growth inhibition measured after 48 hrs by SRB method; format: functional, cell-based
[13] = Anti-cancer activity against human ovarian cancer cells assessed as cell growth inhibition measured after 48 hrs by SRB method; format: functional; details: Ovarian cancer cell line
[14] = system: OVCAR-8; experiment: Anti-cancer activity against human OVCAR-8 cells assessed as cell growth inhibition measured after 48 hrs by SRB method; format: functional, cell-based
[15] = system: SN12C; experiment: Anti-cancer activity against human SN12C cells assessed as cell growth inhibition measured after 48 hrs by SRB method; format: functional, cell-based
[16] = system: OVCAR-4; experiment: Anti-cancer activity against human OVCAR-4 cells assessed as cell growth inhibition measured after 48 hrs by SRB method; format: functional, cell-based
[17] = system: HOP-62; experiment: Anti-cancer activity against human HOP-62 cells assessed as cell growth inhibition measured after 48 hrs by SRB method; format: functional, cell-based
[18] = system: MDA-MB-435; experiment: Anti-cancer activity against human MDA-MB-435 cells assessed as cell growth inhibition measured after 48 hrs by SRB method; format: functional, cell-based
[19] = system: Leukemia cell; experiment: Anti-cancer activity against human leukemia cells assessed as cell growth inhibition measured after 48 hrs by SRB method; format: functional
[20] = system: T47D; experiment: Anti-cancer activity against human T47D cells assessed as cell growth inhibition measured after 48 hrs by SRB method; format: functional, cell-based
[21] = system: SK-MEL-2; experiment: Anti-cancer activity against human SK-MEL-2 cells assessed as cell growth inhibition measured after 48 hrs by SRB method; format: functional, cell-based
[22] = system: SF-539; experiment: Anti-cancer activity against human SF-539 cells assessed as cell growth inhibition measured after 48 hrs by SRB method; format: functional, cell-based
[23] = system: IGROV-1; experiment: Anti-cancer activity against human IGROV1 cells assessed as cell growth inhibition measured after 48 hrs by SRB method; format: functional, cell-based
[24] = system: NCI-H322M; experiment: Anti-cancer activity against human NCI-H322M cells assessed as cell growth inhibition measured after 48 hrs by SRB method; format: functional, cell-based
[25] = system: SR; experiment: Anti-cancer activity against human SR cells assessed as cell growth inhibition measured after 48 hrs by SRB method; format: functional, cell-based
[26] = Anti-cancer activity against human colon cancer cells assessed as cell growth inhibition measured after 48 hrs by SRB method; format: functional; details: Colon cancer cell line
[27] = system: CAKI-1; experiment: Anti-cancer activity against human CAKI-1 cells assessed as cell growth inhibition measured after 48 hrs by SRB method; format: functional, cell-based
[28] = Anti-cancer activity against human prostate cancer cells assessed as cell growth inhibition measured after 48 hrs by SRB method; format: functional; details: Prostate tumor cell line
[29] = system: SK-OV-3; experiment: Anti-cancer activity against human SK-OV-3 cells assessed as cell growth inhibition measured after 48 hrs by SRB method; format: functional, cell-based
[30] = time 48 hrs, read-out: LC50 (the source's name)

Compound C1=C2CNCC3=Cc4c(ccc5ccccc45)OC23Oc2ccc3ccccc3c21 has a pIC50 ([1]; U-251, 48 h) of 5.29, a GI50 ([1]; U-251, time 48 hrs) of 3.24 µM and an LC50 (concentration killing 50% of cells) ([1]; U-251, time 48 hrs) of 4.21 µM. For the same compound, the TGI ([1]; U-251, time 48 hrs) was 14.8 µM, the pIC50 ([2]; UACC-257, 48 h) was 4.43 and the GI50 ([2]; UACC-257, time 48 hrs) was 12.6 µM. It also gave an LC50 (50% lethal concentration) ([2]; UACC-257, time 48 hrs) of 4 µM, a TGI ([2]; UACC-257, time 48 hrs) of 38.9 µM and a GI50 [3] of 4.68 µM. The pIC50 ([4]; SNB-75, 48 h) was 4.95, the GI50 ([4]; SNB-75, time 48 hrs) was 2.34 µM and the LC50 ([4]; SNB-75, time 48 hrs) was 4.18 µM. For the same compound, the TGI ([4]; SNB-75, time 48 hrs) was 11.5 µM, the pIC50 ([5]; 786-0, 48 h) was 5.02 and the GI50 ([5]; 786-0, time 48 hrs) was 5.13 µM. The TGI ([5]; 786-0, time 48 hrs) was 31.6 µM, the GI50 [6] was 3.98 µM and the pIC50 ([7]; NCI-H226, 48 h) was 4.60. It also gave a GI50 ([7]; NCI-H226, time 48 hrs) of 10.5 µM, a TGI ([7]; NCI-H226, time 48 hrs) of 27.5 µM and a pIC50 ([8]; HCT-116, 48 h) of 5.43. It also gave a GI50 ([8]; HCT-116, time 48 hrs) of 3.02 µM, an LC50 ([8]; HCT-116, time 48 hrs) of 4 µM and a TGI ([8]; HCT-116, time 48 hrs) of 13.2 µM. It also gave a pIC50 ([9]; SF-268, 48 h) of 4.91, a GI50 ([9]; SF-268, time 48 hrs) of 5.62 µM and a TGI ([9]; SF-268, time 48 hrs) of 22.4 µM. It also gave a CC50 ([9]; SF-268, time 48 hrs, read-out: LC50 (the source's name)) of 4.15 µM, a pIC50 ([10]; HOP-92, 48 h) of 4.57 and a GI50 ([10]; HOP-92, time 48 hrs) of 2.88 µM. It also gave a TGI ([10]; HOP-92, time 48 hrs) of 17 µM, a pIC50 ([11]; SF-295, 48 h) of 5.28 and a GI50 ([11]; SF-295, time 48 hrs) of 3.09 µM. It also gave a TGI ([11]; SF-295, time 48 hrs) of 15.5 µM, a CC50 ([11]; SF-295, time 48 hrs, read-out: LC50 (the source's name)) of 4 µM and a pIC50 ([12]; BT-549, 48 h) of 4.39. The GI50 ([12]; BT-549, time 48 hrs) was 11.2 µM, the TGI ([12]; BT-549, time 48 hrs) was 40.7 µM and the CC50 ([12]; BT-549, time 48 hrs, read-out: LC50 (the source's name)) was 4 µM. It also gave a GI50 [13] of 3.63 µM, a pIC50 ([14]; OVCAR-8, 48 h) of 5.32 and a GI50 ([14]; OVCAR-8, time 48 hrs) of 3.02 µM. The TGI ([14]; OVCAR-8, time 48 hrs) was 14.8 µM, the CC50 ([14]; OVCAR-8, time 48 hrs, read-out: LC50 (the source's name)) was 4 µM and the pIC50 ([15]; 48 h) was 5.12. It also gave a GI50 ([15]; time 48 hrs) of 4.27 µM, a TGI ([15]; time 48 hrs) of 20 µM and a CC50 [15, 30] of 4.08 µM. The pIC50 ([16]; OVCAR-4, 48 h) was 4.93, the GI50 ([16]; OVCAR-4, time 48 hrs) was 4.68 µM and the LC50 ([16]; OVCAR-4, time 48 hrs) was 4.21 µM. It also gave a TGI ([16]; OVCAR-4, time 48 hrs) of 20 µM, a pIC50 ([17]; HOP-62, 48 h) of 4.91 and a GI50 ([17]; HOP-62, time 48 hrs) of 4.47 µM. The TGI ([17]; HOP-62, time 48 hrs) was 16.6 µM, the pIC50 ([18]; MDA-MB-435, 48 h) was 5.62 and the GI50 ([18]; MDA-MB-435, time 48 hrs) was 1.41 µM. For the same compound, the TGI ([18]; MDA-MB-435, time 48 hrs) was 3.24 µM, the GI50 [19] was 3.16 µM and the pIC50 ([20]; 48 h) was 4.61. It also gave a GI50 ([20]; time 48 hrs) of 8.32 µM, a TGI ([20]; time 48 hrs) of 23.4 µM and a CC50 [20, 30] of 4.22 µM. The pIC50 ([21]; SK-MEL-2, 48 h) was 4.59, the GI50 ([21]; SK-MEL-2, time 48 hrs) was 5.5 µM and the TGI ([21]; SK-MEL-2, time 48 hrs) was 22.9 µM. It also gave a CC50 ([21]; SK-MEL-2, time 48 hrs, read-out: LC50 (the source's name)) of 4.03 µM, a pIC50 ([22]; SF-539, 48 h) of 5.22 and a GI50 ([22]; SF-539, time 48 hrs) of 3.39 µM. It also gave an LC50 (concentration killing 50% of cells) ([22]; SF-539, time 48 hrs) of 4 µM, a TGI ([22]; SF-539, time 48 hrs) of 14.8 µM and a pIC50 ([23]; IGROV-1, 48 h) of 4.68. The GI50 ([23]; IGROV-1, time 48 hrs) was 9.55 µM, the LC50 (concentration killing 50% of cells) ([23]; IGROV-1, time 48 hrs) was 4.08 µM and the TGI ([23]; IGROV-1, time 48 hrs) was 28.8 µM. The pIC50 ([24]; 48 h) was 4.56, the GI50 ([24]; time 48 hrs) was 10.7 µM and the TGI ([24]; time 48 hrs) was 33.1 µM. It also gave a pIC50 ([25]; 48 h) of 5.42, a GI50 ([25]; time 48 hrs) of 2.19 µM and an LC50 ([25]; time 48 hrs) of 4 µM. For the same compound, the TGI ([25]; time 48 hrs) was 5.37 µM, the GI50 [26] was 3.09 µM and the pIC50 ([27]; CAKI-1, 48 h) was 4.92. For the same compound, the GI50 ([27]; CAKI-1, time 48 hrs) was 3.31 µM, the TGI ([27]; CAKI-1, time 48 hrs) was 20.9 µM and the CC50 ([27]; CAKI-1, time 48 hrs, read-out: LC50 (the source's name)) was 4.07 µM. It also gave a GI50 [28] of 3.39 µM, a pIC50 ([29]; SK-OV-3, 48 h) of 5.09 and a GI50 ([29]; SK-OV-3, time 48 hrs) of 3.39 µM. For the same compound, the TGI ([29]; SK-OV-3, time 48 hrs) was 12.9 µM and the CC50 ([29]; SK-OV-3, time 48 hrs, read-out: LC50 (the source's name)) was 4.26 µM.
